Laboratory results published in the NIST ThermoML archive (doi:10.1021/je400885z).
“And” between values parts separate entries of the source, which are not always exact repeats. Equal entries are not always repeated. ± gives the expanded uncertainty stated by the source.

Settings: Liquid

Row | Compound | vapor or sublimation pressure (373.15 K) | vapor or sublimation pressure (423.15 K) | also measured
1 | COCC(C)O (stereo unspecified) [1-methoxy-2-propanol] | 50.45 ± 1.2 kPa and 48.26 ± 1.2 kPa and 48.55 ± 1.2 kPa | 232.13 ± 3 kPa [middle of 4 runs] | vapor or sublimation pressure (473.15 K): 739.81 ± 9.4 kPa
2 | S=C=S [carbon disulfide] | – | – | vapor or sublimation pressure (248.15 K): 4.5 ± 1 kPa; vapor or sublimation pressure (273.15 K): 17.3 ± 1 kPa
3 | CCCCOC(C)=O [butyl ethanoate] | 44.71 ± 1.2 kPa and 42.55 ± 1.1 kPa | 195.63 ± 2.5 kPa and 188.81 ± 2.4 kPa and 191.33 ± 2.5 kPa | vapor or sublimation pressure (473.15 K): 583.23 ± 7.3 kPa
4 | CC(C)(C)O [2-methylpropan-2-ol] | 192.46 ± 2.5 kPa and 191.18 ± 2.5 kPa | 818.16 ± 10 kPa and 816.37 ± 10 kPa | –
5 | CCOC(C)=O [ethyl acetate] | 202.9 ± 2.6 kPa | 687.53 ± 8.6 kPa | –
6 | CCCCO [butan-1-ol] | – | – | vapor or sublimation pressure (333.15 K): 8.39 ± 1 kPa; vapor or sublimation pressure (393.15 K): 110.26 ± 1.6 kPa
7 | CCCCC [pentane] | – | – | vapor or sublimation pressure (333.15 K): 215.21 ± 2.8 kPa; vapor or sublimation pressure (393.15 K): 917.75 ± 11 kPa
8 | O=Cc1ccco1 [2-furaldehyde] | 14.62 ± 1 kPa and 14.65 ± 1 kPa | 77.51 ± 1.4 kPa and 76.13 ± 1.4 kPa | –
9 | O=C=O [carbon dioxide] | – | – | vapor or sublimation pressure (248.15 K): 1672.6 ± 21 kPa; vapor or sublimation pressure (273.15 K): 3485.1 ± 43 kPa
10 | O=C=S [carbonyl sulfide] | – | – | vapor or sublimation pressure (248.15 K): 282.15 ± 3.6 kPa and 287.13 ± 3.7 kPa; vapor or sublimation pressure (273.15 K): 638.23 ± 8 kPa and 651.42 ± 8.2 kPa
11 | NCCO [2-aminoethan-1-ol] | 6.16 ± 1 kPa and 6.17 ± 1 kPa and 6.64 ± 1 kPa | 50.62 ± 1.2 kPa and 52.71 ± 1.2 kPa and 51.97 ± 1.2 kPa | –
12 | C=CCO [2-propenol] | 113.1 ± 1.7 kPa and 109.94 ± 1.7 kPa and 109.95 ± 1.7 kPa | 520.67 ± 6.5 kPa and 518.64 ± 6.5 kPa and 518.11 ± 6.5 kPa | –
